Read-outs that look alike come from different tables or passages of the source.
Columns and labels:
ragweed = assay: Test A postemergence; assay type: in vivo, Ambrosia artemisiifolia; settings: Ambrosia artemisiifolia, post-emergence, 240 h, postemergence, 10 days, 0 to 100 scale (0 no effect, 100 complete control); for pest or weed control at 125 g/ha: 125 g ai/ha, read-out: Ragweed plant response rating; for pest or weed control at 500 g/ha: 500 g ai/ha, visual injury, read-out: Plant response rating, Ragweed
In short: (§1)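 Greenhouse pot test, 10 days. Compound (non-phytotoxic solvent, surfactant) sprayed on soil at seeding or on seedlings at one- to two-leaf stage. Visual injury rated 0–100 against untreated plants.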

oat, wild = assay: Test A postemergence; assay type: in vivo, Avena fatua; settings: Avena fatua, post-emergence, 240 h, postemergence, 10 days, 0 to 100 scale (0 no effect, 100 complete control); for pest or weed control at 125 g/ha: 125 g ai/ha, read-out: Oat, Wild plant response rating; for pest or weed control at 500 g/ha: 500 g ai/ha, visual injury, read-out: Plant response rating, Oat, Wild
In short: as §1

soybean = assay: Test A preemergence; assay type: in vivo, Glycine max; settings: Glycine max, pre-emergence, 240 h, read-out: Plant response rating, Soybean; for plant injury at 125 g/ha: 125 g ai/ha, visual injury after 10 days, 0 to 100 scale, 0 is no effect, 100 is complete control; for plant injury at 500 g/ha: 500 g ai/ha, 0 to 100 scale (0 no effect, 100 complete control), 10 days
In short: as §1

galium = assay: Test A postemergence; assay type: in vivo, Galium aparine; settings: Galium, post-emergence, 240 h, postemergence, 10 days, 0 to 100 scale (0 no effect, 100 complete control); for pest or weed control at 125 g/ha: 125 g ai/ha; for pest or weed control at 500 g/ha: 500 g ai/ha
In short: as §1

blackgrass [1] = assay: Test A postemergence; assay type: in vivo, Alopecurus myosuroides; settings: Alopecurus myosuroides, post-emergence, 240 h; for pest or weed control at 125 g/ha: 125 g ai/ha; for pest or weed control at 500 g/ha: 500 g ai/ha
In short: as §1

pigweed, palmer = assay: Test A postemergence; assay type: in vivo, Amaranthus palmeri; settings: Amaranthus palmeri, post-emergence, 240 h, postemergence, 10 days, 0 to 100 scale (0 no effect, 100 complete control); for pest or weed control at 125 g/ha: 125 g ai/ha, read-out: Pigweed, Palmer plant response rating; for pest or weed control at 500 g/ha: 500 g ai/ha, visual injury, read-out: Plant response rating, Pigweed, Palmer
In short: as §1

ryegrass, Italian = assay: Test A postemergence; assay type: in vivo, Lolium multiflorum; settings: Lolium multiflorum, post-emergence, 240 h, postemergence, 10 days, 0 to 100 scale (0 no effect, 100 complete control); for pest or weed control at 125 g/ha: 125 g ai/ha, read-out: Ryegrass, Italian plant response rating; for pest or weed control at 500 g/ha: 500 g ai/ha, visual injury, read-out: Plant response rating, Ryegrass, Italian
In short: as §1

foxtail, giant [2] = assay: Test A preemergence; assay type: in vivo, Setaria faberi; settings: Setaria faberi, pre-emergence, 240 h, read-out: Plant response rating, Foxtail, Giant; for pest or weed control at 125 g/ha: 125 g ai/ha, visual injury after 10 days, 0 to 100 scale, 0 is no effect, 100 is complete control; for pest or weed control at 500 g/ha: 500 g ai/ha, 0 to 100 scale (0 no effect, 100 complete control), 10 days
In short: as §1

blackgrass [3] = assay: Test A preemergence; assay type: in vivo, Alopecurus myosuroides; settings: Alopecurus myosuroides, pre-emergence, 240 h, read-out: Plant response rating, Blackgrass; for pest or weed control at 125 g/ha: 125 g ai/ha, visual injury after 10 days, 0 to 100 scale, 0 is no effect, 100 is complete control; for pest or weed control at 500 g/ha: 500 g ai/ha, 0 to 100 scale (0 no effect, 100 complete control), 10 days
In short: as §1

goosegrass [4] = assay: Test A preemergence; assay type: in vivo, Eleusine indica; settings: Eleusine indica, pre-emergence, 240 h, read-out: Plant response rating, Goosegrass; for pest or weed control at 125 g/ha: 125 g ai/ha, visual injury after 10 days, 0 to 100 scale, 0 is no effect, 100 is complete control; for pest or weed control at 500 g/ha: 500 g ai/ha, 0 to 100 scale (0 no effect, 100 complete control), 10 days
In short: as §1

sedge, umbrella = assay: Test B flooded paddy test; assay type: in vivo, Cyperus difformis; settings: Cyperus difformis, 312 h; 250 g ai/ha, Flood, 13 days, 0 to 100 scale (0 no effect, 100 complete control); read-out: Plant response rating, Sedge, Umbrella
In short: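 Visual scores from 0 (no effect) to 100 (complete kill) were assigned 13 days after treatment by comparison with controls. Seedlings had been treated at two leaves by adding compound to floodwater standing 3 cm deep, kept at that level in the greenhouse.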

wheat = assay: Test A postemergence; assay type: in vivo, Triticum aestivum; settings: Triticum aestivum, post-emergence, 240 h, postemergence, 10 days, 0 to 100 scale (0 no effect, 100 complete control); for plant injury at 125 g/ha: 125 g ai/ha, read-out: Wheat plant response rating; for plant injury at 500 g/ha: 500 g ai/ha, visual injury, read-out: Plant response rating, Wheat
In short: as §1

goosegrass [5] = assay: Test A postemergence; assay type: in vivo, Eleusine indica; settings: Eleusine indica, post-emergence, 240 h, postemergence, 10 days, 0 to 100 scale (0 no effect, 100 complete control); for pest or weed control at 125 g/ha: 125 g ai/ha; for pest or weed control at 500 g/ha: 500 g ai/ha
In short: as §1

foxtail, giant [6] = assay: Test A postemergence; assay type: in vivo, Setaria faberi; settings: Setaria faberi, post-emergence, 240 h, postemergence, 10 days, 0 to 100 scale (0 no effect, 100 complete control); for pest or weed control at 125 g/ha: 125 g ai/ha; for pest or weed control at 500 g/ha: 500 g ai/ha
In short: as §1

[7] = read-out: Galium plant response rating
[8] = visual injury, read-out: Plant response rating, Galium
[9] = postemergence, 10 days, 0 to 100 scale (0 no effect, 100 complete control), read-out: Blackgrass plant response rating
[10] = postemergence, 10 days, visual injury, 0 to 100 scale (0 no effect, 100 complete control), read-out: Plant response rating, Blackgrass
[11] = read-out: Goosegrass plant response rating
[12] = visual injury, read-out: Plant response rating, Goosegrass
[13] = read-out: Foxtail, Giant plant response rating
[14] = visual injury, read-out: Plant response rating, Foxtail, Giant

SMILES: C[C@H]1CN(C(=O)c2cccc(-n3cnc(C4CCC4)n3)c2)c2cccc(Cl)c2O1 [Compound 93, [(2S)-8-Chloro-2,3-dihydro-2-methyl-4H-1,4-benzoxazin-4-yl][3-(3-cyclobutyl-1H-1,2,4-triazol-1-yl)phenyl]methanone]
- pest or weed control at 125 g/ha (ragweed): 50%
- pest or weed control at 500 g/ha (ragweed): 50%
- pest or weed control at 125 g/ha (oat, wild): 20%
- pest or weed control at 500 g/ha (oat, wild): 70%
- plant injury at 125 g/ha (soybean): 30%
- plant injury at 500 g/ha (soybean): 30%
- pest or weed control at 125 g/ha (galium; [7]): 100%
- pest or weed control at 500 g/ha (galium; [8]): 100%
- pest or weed control at 125 g/ha (blackgrass [1]; [9]): 70%
- pest or weed control at 500 g/ha (blackgrass [1]; [10]): 90%
- pest or weed control at 125 g/ha (pigweed, palmer): 90%
- pest or weed control at 500 g/ha (pigweed, palmer): 100%
- pest or weed control at 125 g/ha (ryegrass, Italian): 30%
- pest or weed control at 500 g/ha (ryegrass, Italian): 90%
- pest or weed control at 125 g/ha (foxtail, giant [2]): 80%
- pest or weed control at 500 g/ha (foxtail, giant [2]): 100%
- pest or weed control at 125 g/ha (blackgrass [3]): 80%
- pest or weed control at 500 g/ha (blackgrass [3]): 90%
- pest or weed control at 125 g/ha (goosegrass [4]): 90%
- pest or weed control at 500 g/ha (goosegrass [4]): 100%
- pest or weed control at 250 g/ha (sedge, umbrella): 0%
- plant injury at 125 g/ha (wheat): 20%
- plant injury at 500 g/ha (wheat): 20%
- pest or weed control at 125 g/ha (goosegrass [5]; [11]): 20%
- pest or weed control at 500 g/ha (goosegrass [5]; [12]): 70%
- pest or weed control at 125 g/ha (foxtail, giant [6]; [13]): 60%
- pest or weed control at 500 g/ha (foxtail, giant [6]; [14]): 90%

SMILES: Cc1ccc(-n2cnc(C(C)C)n2)cc1C(=O)N1C[C@H](C)Oc2c(Cl)cccc21 [Compound 73, [(2S)-8-Chloro-2,3-dihydro-2-methyl-4H-1,4-benzoxazin-4-yl][2-methyl-5-[3-(1-methylethyl)-1H-1,2,4-triazol-1-yl]phenyl]methanone]
- pest or weed control at 500 g/ha (ragweed): 80%
- pest or weed control at 500 g/ha (oat, wild): 80%
- plant injury at 125 g/ha (soybean): 60%
- plant injury at 500 g/ha (soybean): 100%
- pest or weed control at 125 g/ha (galium; [8]): 100%
- pest or weed control at 500 g/ha (galium; [8]): 100%
- pest or weed control at 125 g/ha (blackgrass [1]; [10]): 90%
- pest or weed control at 500 g/ha (blackgrass [1]; Postemergence, 0 to 100 scale, read-out: Plant response rating, Blackgrass): 90%
- pest or weed control at 500 g/ha (pigweed, palmer): 90%
- pest or weed control at 500 g/ha (ryegrass, Italian): 100%
- pest or weed control at 125 g/ha (foxtail, giant [2]): 100%
- pest or weed control at 500 g/ha (foxtail, giant [2]): 100%
- pest or weed control at 125 g/ha (blackgrass [3]): 70%
- pest or weed control at 500 g/ha (blackgrass [3]): 90%
- pest or weed control at 125 g/ha (goosegrass [4]): 100%
- pest or weed control at 500 g/ha (goosegrass [4]): 100%
- pest or weed control at 250 g/ha (sedge, umbrella): 70%
- plant injury at 500 g/ha (wheat): 80%
- pest or weed control at 125 g/ha (goosegrass [5]; [12]): 20%
- pest or weed control at 500 g/ha (goosegrass [5]; [12]): 60%
- pest or weed control at 125 g/ha (foxtail, giant [6]; [14]): 80%
- pest or weed control at 500 g/ha (foxtail, giant [6]; [14]): 90%

SMILES: COCc1ncn(-c2cccc(C(=O)N3C[C@H](C)Oc4c(C)cccc43)c2)n1 [Compound 101, [(2S)-2,3-Dihydro-2,8-dimethyl-4H-1,4-benzoxazin-4-yl][3-[3-(methoxymethyl)-1H-1,2,4-triazol-1-yl]phenyl]methanone]
- pest or weed control at 125 g/ha (ragweed): 50%
- pest or weed control at 500 g/ha (ragweed): 50%
- pest or weed control at 125 g/ha (oat, wild): 40%
- pest or weed control at 500 g/ha (oat, wild): 90%
- plant injury at 125 g/ha (soybean): 20%
- plant injury at 500 g/ha (soybean): 40%
- pest or weed control at 125 g/ha (galium; [7]): 50%
- pest or weed control at 500 g/ha (galium; [8]): 90%
- pest or weed control at 125 g/ha (blackgrass [1]; [9]): 70%
- pest or weed control at 500 g/ha (blackgrass [1]; [10]): 100%
- pest or weed control at 125 g/ha (pigweed, palmer): 50%
- pest or weed control at 500 g/ha (pigweed, palmer): 60%
- pest or weed control at 125 g/ha (ryegrass, Italian): 60%
- pest or weed control at 500 g/ha (ryegrass, Italian): 60%
- pest or weed control at 125 g/ha (foxtail, giant [2]): 90%
- pest or weed control at 500 g/ha (foxtail, giant [2]): 100%
- pest or weed control at 125 g/ha (blackgrass [3]): 50%
- pest or weed control at 500 g/ha (blackgrass [3]): 90%
- pest or weed control at 125 g/ha (goosegrass [4]): 90%
- pest or weed control at 500 g/ha (goosegrass [4]): 100%
- pest or weed control at 250 g/ha (sedge, umbrella): 85%
- plant injury at 125 g/ha (wheat): 20%
- plant injury at 500 g/ha (wheat): 70%
- pest or weed control at 125 g/ha (goosegrass [5]; [11]): 50%
- pest or weed control at 500 g/ha (goosegrass [5]; [12]): 80%
- pest or weed control at 125 g/ha (foxtail, giant [6]; [13]): 90%
- pest or weed control at 500 g/ha (foxtail, giant [6]; [14]): 90%
